pKi: −log10 of the molar value. The source made the active and inactive calls. No cut-off for these calls is given here.
Columns and labels:
[1] = target: Sodium-dependent serotonin transporter (Rattus norvegicus, UniProt P31652); assay: Displacement of [3H]citalopram from SERT in rat cerebral cortex by liquid scintillation counting; format: tissue-based
[2] = target: T1, 5-hydroxytryptamine receptor 1A (Rattus norvegicus, UniProt P19327); assay: Displacement of [3H]8-OH-DPAT from 5-HT1A receptor in rat hippocampus; format: tissue-based
T1 sequence (P19327 whole entry): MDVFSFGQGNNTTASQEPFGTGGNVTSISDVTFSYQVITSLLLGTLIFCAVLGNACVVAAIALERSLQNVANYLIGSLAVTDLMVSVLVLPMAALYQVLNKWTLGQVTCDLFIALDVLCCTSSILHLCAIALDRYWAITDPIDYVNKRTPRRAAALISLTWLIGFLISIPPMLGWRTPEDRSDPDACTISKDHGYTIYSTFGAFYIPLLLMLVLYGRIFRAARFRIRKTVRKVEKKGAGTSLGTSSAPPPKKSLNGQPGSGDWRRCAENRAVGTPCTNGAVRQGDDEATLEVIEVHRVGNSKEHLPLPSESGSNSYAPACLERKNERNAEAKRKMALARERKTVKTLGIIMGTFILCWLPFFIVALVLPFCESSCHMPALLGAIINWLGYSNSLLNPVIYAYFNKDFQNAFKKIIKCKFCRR

Mus musculus [3] = assay: Effect on hypothermia in Swiss albino mouse assessed as change in rectal body temperature at 5 mg/kg, ip after 60 mins by inducible hypothermia test; format: functional, organism-based; parameters: dose 5 mg/kg
Mus musculus [4] = assay: Effect on hypothermia in Swiss albino mouse assessed as change in rectal body temperature at 5 mg/kg, ip after 120 mins by inducible hypothermia test; format: functional, organism-based; parameters: dose 5 mg/kg
Mus musculus [5] = species on record: Mus musculus; conditions: Swiss albino, 20 mg/kg
Mus musculus [6] = species on record: Mus musculus; conditions: Swiss albino, 20 mg/kg; remark: listed apart in the source
Mus musculus [7] = assay: Effect on hypothermia in Swiss albino mouse assessed as change in rectal body temperature at 20 mg/kg, ip after 90 mins by inducible hypothermia test; format: functional, organism-based; parameters: dose 20 mg/kg
Mus musculus [8] = assay: Effect on hypothermia in Swiss albino mouse assessed as change in rectal body temperature at 5 mg/kg, ip after 90 mins by inducible hypothermia test; format: functional, organism-based; parameters: dose 5 mg/kg
Mus musculus [9] = assay: Effect on hypothermia in Swiss albino mouse assessed as change in rectal body temperature at 10 mg/kg, ip after 60 mins by inducible hypothermia test; format: functional, organism-based; parameters: dose 10 mg/kg
Mus musculus [10] = assay: Effect on hypothermia in Swiss albino mouse assessed as change in rectal body temperature at 10 mg/kg, ip after 30 mins by inducible hypothermia test; format: functional, organism-based; parameters: dose 10 mg/kg
Mus musculus [11] = assay: Effect on hypothermia in Swiss albino mouse assessed as change in rectal body temperature at 5 mg/kg, ip after 30 mins by inducible hypothermia test; format: functional, organism-based; parameters: dose 5 mg/kg
Mus musculus [12] = assay: Effect on hypothermia in Swiss albino mouse assessed as change in rectal body temperature at 10 mg/kg, ip after 120 mins by inducible hypothermia test; format: functional, organism-based; parameters: dose 10 mg/kg
Mus musculus [13] = assay: Effect on hypothermia in Swiss albino mouse assessed as change in rectal body temperature at 20 mg/kg, ip after 30 mins by inducible hypothermia test; format: functional, organism-based; parameters: dose 20 mg/kg
Mus musculus [14] = assay: Effect on hypothermia in Swiss albino mouse assessed as change in rectal body temperature at 10 mg/kg, ip after 90 mins by inducible hypothermia test; format: functional, organism-based; parameters: dose 10 mg/kg
Mus musculus [15] = species on record: Mus musculus; conditions: Swiss albino, 20 mg/kg; remark: listed apart in the source
Mus musculus [16] = assay: Effect on hypothermia in Swiss albino mouse assessed as change in rectal body temperature at 20 mg/kg, ip after 60 mins by inducible hypothermia test; format: functional, organism-based; parameters: dose 20 mg/kg
Mus musculus [17] = species on record: Mus musculus; conditions: Swiss albino, 20 mg/kg; remark: listed apart in the source
Mus musculus [18] = assay: Effect on hypothermia in Swiss albino mouse assessed as change in rectal body temperature at 20 mg/kg, ip after 120 mins by inducible hypothermia test; format: functional, organism-based; parameters: dose 20 mg/kg
Mus musculus [19] = assay: Effect on spontaneous locomotor activity in Swiss albino mouse assessed as number of light-beam crossings in actiometers pretreated for 30 mins at 20 mg/kg, ip measured during 6 mins post drug dose; format: functional; conditions: route intraperitoneal
Mus musculus [20] = assay: Antidepressant activity in Swiss albino mouse assessed as reduction of immobility time at 20 mg/kg, ip administered 30 mins before test measured 6 mins test session after 2 mins habituation period by forced swimming test; format: functional; parameters: scale not given: the % may be the effect or the level left; conditions: route intraperitoneal
Mus musculus [21] = assay: Effect on hypothermia in Swiss albino mouse assessed as change in rectal body temperature at 20 mg/kg, ip dosed 15 mins after 0.1 mg/kg, sc WAY 100635 challenge measured after 30 mins by inducible hypothermia test; format: functional, organism-based
Mus musculus [22] = assay: Effect on spontaneous locomotor activity in Swiss albino mouse assessed as number of light-beam crossings in actiometers pretreated for 30 mins at 20 mg/kg, ip measured during 30 mins post drug dose; format: functional; conditions: route intraperitoneal
Mus musculus [23] = assay: Antidepressant activity in Swiss albino mouse assessed as reduction of immobility time at 10 mg/kg, ip administered 30 mins before test measured 6 mins test session after 2 mins habituation period by forced swimming test; format: functional
Mus musculus [24] = assay: Effect on hypothermia in Swiss albino mouse assessed as change in rectal body temperature at 20 mg/kg, ip dosed 15 mins after 0.1 mg/kg, sc WAY 100635 challenge measured after 60 mins by inducible hypothermia test; format: functional, organism-based

Sequence of Sodium-dependent serotonin transporter (P31652 whole entry): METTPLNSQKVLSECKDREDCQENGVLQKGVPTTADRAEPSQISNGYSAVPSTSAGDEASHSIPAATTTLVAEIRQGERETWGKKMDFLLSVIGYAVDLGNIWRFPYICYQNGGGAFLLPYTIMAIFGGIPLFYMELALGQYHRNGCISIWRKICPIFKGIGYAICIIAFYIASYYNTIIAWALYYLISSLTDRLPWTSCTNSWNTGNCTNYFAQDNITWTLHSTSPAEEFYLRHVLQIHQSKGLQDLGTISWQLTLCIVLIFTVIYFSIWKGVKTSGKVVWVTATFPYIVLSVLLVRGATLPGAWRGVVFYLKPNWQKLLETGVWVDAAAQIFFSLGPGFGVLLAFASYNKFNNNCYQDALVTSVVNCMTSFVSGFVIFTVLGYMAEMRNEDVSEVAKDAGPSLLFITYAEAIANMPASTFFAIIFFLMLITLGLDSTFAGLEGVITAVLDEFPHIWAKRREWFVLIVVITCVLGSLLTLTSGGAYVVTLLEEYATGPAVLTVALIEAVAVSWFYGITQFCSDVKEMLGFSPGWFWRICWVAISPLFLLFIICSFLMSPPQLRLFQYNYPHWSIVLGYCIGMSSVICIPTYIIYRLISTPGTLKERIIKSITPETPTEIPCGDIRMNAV

In the case of `COc1ccc(-c2c3n(c(=O)n(CCCCN4CCC(c5c(C)[nH]c6ccccc56)CC4)c2=O)CCCC3)cc1`, the pKi [1] was 6.69.

In the case of `COc1ccc2[nH]cc(C3CCN(CCCCn4c(=O)c(-c5ccccc5C)c5n(c4=O)CCCC5)CC3)c2c1`, the pKi [2] was 7.29 and the pKi [1] was 6.91.

For `Cc1ccccc1-c1c2n(c(=O)n(CCCCN3CCC(c4c[nH]c5ccccc45)CC3)c1=O)CCCC2`, the pKi [2] was 7.27 and the pKi [1] was 6.91.

In the case of `Cc1[nH]c2ccccc2c1C1CCN(CCCCn2c(=O)c(-c3ccc(F)cc3)c3n(c2=O)CCCC3)CC1`, the pKi [2] was 5.49 and the pKi [1] was 6.94.

`Cc1[nH]c2ccccc2c1C1CCN(CCCCn2c(=O)c(-c3ccc(Cl)cc3)c3n(c2=O)CCCC3)CC1` gave a pKi [2] of 5.82 and a pKi [1] of 6.34.

In the case of `COc1ccc2[nH]cc(C3CCN(CCCCn4c(=O)c(-c5ccc(F)cc5)c5n(c4=O)CCCC5)CC3)c2c1`, the pKi [2] was 7.86 and the pKi [1] was 7.12.

In the case of `COc1ccc(-c2c3n(c(=O)n(CCCCN4CCC(c5c[nH]c6ccccc56)CC4)c2=O)CCCC3)cc1`, the pKi [2] was 7.69, the deltaT (Mus musculus [3]) was -0.2 °C and the deltaT (Mus musculus [4]) was -0.1 °C. The deltaT (Mus musculus [5]) was -0.2 °C, the deltaT (Mus musculus [6]) was -0.5 °C and the deltaT (Mus musculus [7]) was -0.4 °C. For the same compound, the deltaT (Mus musculus [8]) was -0.2 °C, the deltaT (Mus musculus [9]) was -0.5 °C and the deltaT (Mus musculus [10]) was -0.7 °C. The pKi [1] was 7.15, the deltaT (Mus musculus [11]) was -0.5 °C and the deltaT (Mus musculus [12]) was -0.3 °C. It also gave a deltaT (Mus musculus [13]) of -0.6 °C, a deltaT (Mus musculus [14]) of -0.4 °C and a deltaT (Mus musculus [15]) of -0.3 °C. It also gave a deltaT (Mus musculus [16]) of -0.7 °C, a deltaT (Mus musculus [17]) of 0.6 °C and a deltaT (Mus musculus [18]) of -0.3 °C.

`COc1ccccc1-c1c2n(c(=O)n(CCCCN3CCC(c4c(C)[nH]c5ccccc45)CC3)c1=O)CCCC2` was tested, and the pKi [2] was 5.80 and the pKi [1] was 6.14.

`COc1ccc2[nH]cc(C3CCN(CCCCn4c(=O)c(-c5ccccc5F)c5n(c4=O)CCCC5)CC3)c2c1` gave an Activity (Mus musculus [19]) of 272, a pKi [2] of 7.34 and a deltaT (Mus musculus [3]) of -0.6 °C. It also gave a deltaT (Mus musculus [4]) of -0.3 °C, an Activity (Mus musculus [20]) of 26% and a deltaT (Mus musculus [7]) of -0.8 °C. It also gave a deltaT (Mus musculus [8]) of -0.4 °C, a deltaT (Mus musculus [21]) of -0.5 °C and a deltaT (Mus musculus [9]) of -0.8 °C. The deltaT (Mus musculus [10]) was -0.7 °C, the Activity (Mus musculus [22]) was 520 and the Activity (Mus musculus [23]) was “inactive”. It also gave a pKi [1] of 6.73, a deltaT (Mus musculus [11]) of -0.7 °C and a deltaT (Mus musculus [12]) of -0.4 °C. For the same compound, the deltaT (Mus musculus [24]) was -0.4 °C, the deltaT (Mus musculus [13]) was -1.2 °C and the deltaT (Mus musculus [14]) was -0.6 °C. It also gave a deltaT (Mus musculus [16]) of -1 °C and a deltaT (Mus musculus [18]) of -0.7 °C.

For `Cc1[nH]c2ccccc2c1C1CCN(CCCCn2c(=O)c(-c3ccccc3F)c3n(c2=O)CCCC3)CC1`, the pKi [2] was 5.66 and the pKi [1] was 6.03.
